pIC50: −log10 of the molar value. Like-named read-outs stand apart in the source and are kept apart here.
Assays:
[1] = test system: T47D (PI3Kα H1047R mutant) cells; experiment: CellTiter-Glo 2.0 luminescent cell viability assay, 72 hours, T47D cells; type: cell-based; settings: Homo sapiens, T47D, 72 h; for pIC50: T47D (PI3Kα H1047R mutant) cells, CellTiter-Glo, approximately 72 hours, read-out: T47D (H1047R mutant) Viability IC50
Summary of the method: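 Viability was measured by CellTiter-Glo 2.0 luminescence after approximately 72 h of compound exposure at 37° C. Plating was 1000 cells per well the day before dosing, with ten 1:4 dilutions from a 10 µM top concentration. Values as percent of vehicle were fitted by variable-slope log(inhibitor) regression to give IC50.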

[2] = test system: SKBR3 (PI3Kα wild type) cells; experiment: CellTiter-Glo 2.0 luminescent cell viability assay, 72 hours, SKBR3 cells; type: cell-based; settings: Homo sapiens, SK-BR-3, 72 h; for pIC50: SKBR3 (PI3Kα wild type) cells, CellTiter-Glo, approximately 72 hours, read-out: SKBR3 (WT) Viability IC50
Summary of the method: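 Viability measured via CTG luminescence following roughly 72 hours of compound exposure at 37° C. Dosing used a 10 um starting concentration diluted 1:4 over 10 points; percent-of-vehicle data fitted with a variable-slope four-parameter model for IC50.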

Row | SMILES | pIC50 [1] | pIC50 [2] | IC50 ([1]; read-out: T47D (H1047R mutant) Viability IC50 (nM)) | IC50 ([2]; read-out: SKBR3 (WT) Viability IC50 (nM))
1 | Cc1cc([C@@H](C)Nc2ccc(Cl)nc2C(=O)O)c2nc(N3CC4C(C3)C4(F)F)c(C#N)c(=O)n2c1 (stereo partly drawn) [Example 11-143, 6-chloro-3-(((1R)-1-(3-cyano-2-(6,6-difluoro-3-azabicyclo[3.1.0]hexan-3-yl)-7-methyl-4-oxo-4H-pyrido[1,2-a]pyrimidin-9-yl)ethyl)amino)picolinic acid] | 6.10 | < 5.00 |  | 
2 | Cc1cc([C@@H](C)Nc2ccccc2C(=O)O)c2nc(N3CC(F)(F)[C@H]3C)c(C)c(=O)n2c1 [Example 11-96, 2-(((R)-1-(2-((R)-3,3-difluoro-2-methylazetidin-1-yl)-3,7-dimethyl-4-oxo-4H-pyrido[1,2-a]pyrimidin-9-yl)ethyl)amino)benzoic acid] | 6.80 | < 5.00 |  | 
3 | Cc1cc([C@@H](C)Nc2ccccc2C(=O)O)c2nc(N3CCC(C4CCC4)CC3)c(C)c(=O)n2c1 [Example 11-20, (R)-2-((1-(2-(4-cyclobutylpiperidin-1-yl)-3,7-dimethyl-4-oxo-4H-pyrido[1,2-a]pyrimidin-9-yl)ethyl)amino)benzoic acid] | 6.50 | < 5.00 |  | 
4 | Cc1cc([C@@H](C)Nc2ccccc2C(=O)O)c2nc(N3CCN(CC(F)F)CC3)c(C#N)c(=O)n2c1 [Example 11-42, (R)-2-((1-(3-cyano-2-(4-(2,2-difluoroethyl)piperazin-1-yl)-7-methyl-4-oxo-4H-pyrido[1,2-a]pyrimidin-9-yl)ethyl)amino)benzoic acid] | 6.76 | < 5.00 |  | 
5 | Cc1cc([C@@H](C)Nc2ccccc2C(=O)O)c2nc(N3Cc4ccccc4C3CO)c(C)c(=O)n2c1 (stereo partly drawn) [Example 11-19, 2-(((1R)-1-(2-(1-(hydroxymethyl)isoindolin-2-yl)-3,7-dimethyl-4-oxo-4H-pyrido[1,2-a]pyrimidin-9-yl)ethyl)amino)benzoic acid] | 6.76 | < 5.00 |  | 
6 | Cc1cc([C@@H](C)Nc2ccccc2C(=O)O)c2nc(N3CC(O)C4CCCCC43)c(C)c(=O)n2c1 (stereo partly drawn) [Example 11-31, 2-(((1R)-1-(2-(3-hydroxyoctahydro-1H-indol-1-yl)-3,7-dimethyl-4-oxo-4H-pyrido[1,2-a]pyrimidin-9-yl)ethyl)amino)benzoic acid] | 6.48 | < 5.00 |  | 
7 | Cc1cc([C@@H](C)Nc2ccccc2C(=O)O)c2nc(N3C4CCC3CC(c3ccnn3C)C4)c(C)c(=O)n2c1 (stereo partly drawn) [Example 10-2, 2-(((1R)-1-(3,7-dimethyl-2-(3-(1-methyl-1H-pyrazol-5-yl)-8-azabicyclo[3.2.1]octan-8-yl)-4-oxo-4H-pyrido[1,2-a]pyrimidin-9-yl)ethyl)amino)benzoic acid] |  |  | 4.72 nM | > 10000 nM
8 | Cc1cc([C@@H](C)Nc2ccccc2C(=O)O)c2nc(N3CCc4ccccc4C3)c(C)c(=O)n2c1 [Example 10-7, (R)-2-((1-(2-(3,4-dihydroisoquinolin-2(1H)-yl)-3,7-dimethyl-4-oxo-4H-pyrido[1,2-a]pyrimidin-9-yl)ethyl)amino)benzoic acid] | 7.77 | < 5.00 |  | 
9 | Cc1cc([C@@H](C)Nc2ccc(F)nc2C(=O)O)c2nc(N3CCC(F)(F)CC3)c(C#N)c(=O)n2c1 [Example 11-44, (R)-3-((1-(3-cyano-2-(4,4-difluoropiperidin-1-yl)-7-methyl-4-oxo-4H-pyrido[1,2-a]pyrimidin-9-yl)ethyl)amino)-6-fluoropicolinic acid] | 5.02 | < 5.00 |  | 
10 | Cc1cc([C@@H](C)Nc2ccccc2C(=O)O)c2nc(N3CCN(c4ccc(C(F)(F)F)cc4C#N)C[C@H]3C)c(C#N)c(=O)n2c1 [Example 11-76, 2-(((R)-1-(3-cyano-2-((R)-4-(2-cyano-4-(trifluoromethyl)phenyl)-2-methylpiperazin-1-yl)-7-methyl-4-oxo-4H-pyrido[1,2-a]pyrimidin-9-yl)ethyl)amino)benzoic acid] | 6.47 | < 5.00 |  | 
11 | Cc1cc([C@@H](C)Nc2ccc(Cl)nc2C(=O)O)c2nc(N3CCN(c4ccc(C#N)cc4)C[C@H]3C)c(C#N)c(=O)n2c1 [Example 11-128, 6-chloro-3-(((R)-1-(3-cyano-2-((R)-4-(4-cyanophenyl)-2-methylpiperazin-1-yl)-7-methyl-4-oxo-4H-pyrido[1,2-a]pyrimidin-9-yl)ethyl)amino)picolinic acid] | 6.56 | < 5.00 |  | 
12 | Cc1cc([C@@H](C)Nc2ccccc2C(=O)O)c2nc(N[C@@H](C)C3CC3)c(C)c(=O)n2c1 [Example 11-166, 2-(((R)-1-(2-(((S)-1-cyclopropylethyl)amino)-3,7-dimethyl-4-oxo-4H-pyrido[1,2-a]pyrimidin-9-yl)ethyl)amino)benzoic acid] | 6.44 | < 5.00 |  | 

Continued, in another order:

Row | pIC50 [1] | pIC50 [2] | SMILES | IC50 ([1]; read-out: T47D (H1047R mutant) Viability IC50 (nM)) | IC50 ([2]; read-out: SKBR3 (WT) Viability IC50 (nM))
13 | 6.50 | < 5.00 | Cc1cc([C@@H](C)Nc2ccccc2C(=O)O)c2nc(NCC(C)C)c(C)c(=O)n2c1 [Example 11-309, (R)-2-((1-(2-(isobutylamino)-3,7-dimethyl-4-oxo-4H-pyrido[1,2-a]pyrimidin-9-yl)ethyl)amino)benzoic acid] |  | 
14 | 5.04 | 5.05 | Cc1cc([C@@H](C)Nc2ccccc2)c2nc(N3Cc4ccccc4C3)c(C#N)c(=O)n2c1 [Example 11-301, (R)-2-(isoindolin-2-yl)-7-methyl-4-oxo-9-(1-(phenylamino)ethyl)-4H-pyrido[1,2-a]pyrimidine-3-carbonitrile] |  | 
15 | < 5.00 | < 5.00 | Cc1cc(C(=O)NC2(CC(=O)O)CCC2)c2nc(N3CCCCC3)c(C#N)c(=O)n2c1 [Example 11-316, 2-(1-(3-cyano-7-methyl-4-oxo-2-(piperidin-1-yl)-4H-pyrido[1,2-a]pyrimidine-9-carboxamido)cyclobutyl)acetic acid] |  | 
16 | 6.41 | < 5.00 | Cc1c(N2Cc3ccccc3C2)nc2c([C@@H](C)Nc3ccccc3C(=O)O)cc(F)cn2c1=O [Example 11-290, (R)-2-((1-(7-fluoro-2-(isoindolin-2-yl)-3-methyl-4-oxo-4H-pyrido[1,2-a]pyrimidin-9-yl)ethyl)amino)benzoic acid] |  | 
17 | 6.27 | 5.92 | Cc1cc(C(C)Nc2cccnc2C(=O)O)c2nc(N3CCCCC3)c(C)c(=O)n2c1 (stereo not shown) [Example 11-356, 3-((1-(3,7-dimethyl-4-oxo-2-(piperidin-1-yl)-4H-pyrido[1,2-a]pyrimidin-9-yl)ethyl)amino)picolinic acid] |  | 
18 | 5.84 | 5.05 | Cc1cc(C(C)Nc2ccccc2)c2nc(N3Cc4ccccc4C3)c(C#N)c(=O)n2c1 (stereo not shown) [Example 11-302, 2-(isoindolin-2-yl)-7-methyl-4-oxo-9-(1-(phenylamino)ethyl)-4H-pyrido[1,2-a]pyrimidine-3-carbonitrile] |  | 
19 | 5.49 | < 5.00 | Cc1cc(C(C)Nc2ccccc2C(=O)O)c2nc(-c3cccnc3)cc(=O)n2c1 (stereo not shown) [Example 11-401, 2-((1-(7-methyl-4-oxo-2-(pyridin-3-yl)-4H-pyrido[1,2-a]pyrimidin-9-yl)ethyl)amino)benzoic acid] |  | 
20 | 6.06 | < 5.00 | Cc1cc([C@H](C)Nc2ccccc2C(=O)O)c2nc(N3Cc4ccccc4C3)cc(=O)n2c1 [Example 11-406, (S)-2-((1-(2-(isoindolin-2-yl)-7-methyl-4-oxo-4H-pyrido[1,2-a]pyrimidin-9-yl)ethyl)amino)benzoic acid] |  | 
